Laboratory results from the supplement of paper PMC4121296.
± gives the standard deviation of the averaged measurements.

Columns and labels:
Conditions in all cases: exposure: 5-72 hpf
[1] = system: Danio rerio embryo (fli1:egfp); assay: heart rate at 72 hpf (beats per minute); higher = faster heart rate
Method: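 fli1:egfp zebrafish embryos exposed 5-72 hpf to chemical (0.05-50 µM, 0.1% DMSO) in 384-well plates; heart rate at 72 hpf quantified from stream acquisitions by semi-automated MetaXpress journal (peak counting); only embryos in concentrations passing survival/body-length criteria analyzed.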

[2] = system: Danio rerio embryo (fli1:egfp); assay: body length at 72 hpf (µm); higher = longer body (less growth inhibition)
Method: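 Transgenic fli1:egfp zebrafish embryos (one per well, 384-well plate) exposed statically from 5 to 72 hpf at 28 °C to chemical (0.05-50 µM, 0.1% DMSO); at 72 hpf anesthetized and imaged on ImageXpress; body length of live, hatched, correctly oriented embryos measured by automated MetaXpress journal. Dead/unhatched/misoriented embryos have no value.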

[3] = system: Danio rerio embryo (fli1:egfp); assay: pericardial area at 72 hpf (image area units (not stated)); higher = larger pericardial area (edema)
Method: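 fli1:egfp zebrafish embryos exposed 5-72 hpf to chemical (0.05-50 µM, 0.1% DMSO); pericardial area at 72 hpf measured by semi-automated MetaXpress journal (increase indicates edema).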

[4] = system: Danio rerio embryo (fli1:egfp); assay: arterial (dorsal aorta) circulation score at 72 hpf (normalized DA-Max (arbitrary units)); higher = more circulation
Method: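 fli1:egfp zebrafish embryos exposed 5-72 hpf to chemical (0.05-50 µM, 0.1% DMSO); arterial circulation at 72 hpf quantified from stream acquisitions of the dorsal aorta by FFT-based analysis (DA-Max, normalized dorsal aorta signal); only concentrations passing survival/body-length criteria analyzed.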

[5] = system: Danio rerio embryo (fli1:egfp); assay: intersegmental vessel area normalized to body length at 72 hpf (ISV area / body length (normalized units)); higher = more vessel area
Method: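 fli1:egfp zebrafish embryos exposed 5-72 hpf to chemical (0.05-50 µM, 0.1% DMSO); intersegmental vessel (ISV) eGFP area quantified by MetaXpress journal at 72 hpf and normalized to body length.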

CO/N=C(/C1=NOCCO1)c1ccccc1Oc1ncnc(Oc2ccccc2Cl)c1F [Fluoxastrobin]
Conditions | arterial, [4] | body length at 72 hpf, [2] | heart rate at 72 hpf, [1] | intersegmental vessel area normalized, [5] | pericardial area at 72 hpf, [3]
0.0061 µM | 13.7 ± 5.1 | 2970 ± 120 | 182 ± 14 | 70.3 ± 21 | 12700 ± 3000
0.0122 µM | 15 ± 5.1 | 2930 ± 140 | 189 ± 14 | 71.6 ± 22 | 14000 ± 3000
0.0244 µM | 11.9 ± 4 | 2900 ± 180 | 188 ± 16 | 76 ± 22 | 13500 ± 3400
0.05 µM | 15.2 ± 6.6 | 2970 ± 140 | 194 ± 16 | 79.4 ± 18 | 14300 ± 3500
0.098 µM | 12.6 ± 3.8 | 2980 ± 140 | 198 ± 20 | 82.8 ± 14 | 14900 ± 4600
0.195 µM | 16.2 ± 5.2 | 2990 ± 140 | 198 ± 9.2 | 75.3 ± 21 | 14200 ± 2300
0.39 µM | 13.1 ± 4.5 | 2970 ± 140 | 194 ± 22 | 77.9 ± 21 | 15000 ± 2900
0.78 µM | 13.9 ± 4.4 | 2940 ± 130 | 191 ± 16 | 67.2 ± 20 | 13900 ± 2700
1.56 µM | 12.1 ± 4.1 | 2910 ± 270 | 177 ± 22 | 80.3 ± 19 | 17100 ± 9300
3.125 µM | 6.76 ± 5.4 | 3010 ± 130 | 161 ± 40 | 64.8 ± 19 | 28800 ± 17000

C=CCOC(=O)C(C)(C)OC(=O)c1cc(-n2c(=O)cc(C(F)(F)F)n(C)c2=O)ccc1Cl [Butafenacil]
Conditions | arterial, [4] | body length at 72 hpf, [2] | heart rate at 72 hpf, [1] | intersegmental vessel area normalized, [5] | pericardial area at 72 hpf, [3]
0.05 µM | 11.5 ± 5.8 | 2960 ± 130 | 182 ± 17 | 72.8 ± 25 | 15900 ± 4600
0.098 µM | 11.8 ± 4.2 | 2990 ± 130 | 180 ± 14 | 61.6 ± 25 | 14800 ± 3900
0.195 µM | 10.1 ± 4 | 2960 ± 260 | 191 ± 24 | 70.6 ± 21 | 16200 ± 3400
0.39 µM | 7.84 ± 2.8 | 3000 ± 120 | 185 ± 24 | 68.9 ± 18 | 15700 ± 4800
0.78 µM | 5.12 ± 1.8 | 2970 ± 230 | 172 ± 14 | 55.9 ± 20 | 18900 ± 5500
1.56 µM | 5.32 ± 3 | 2970 ± 110 | 168 ± 17 | 61.2 ± 22 | 18800 ± 5100
3.125 µM | 5.76 ± 2.2 | 2980 ± 110 | 175 ± 22 | 69.3 ± 23 | 18700 ± 5900
6.25 µM | 4.56 ± 2 | 3010 ± 110 | 184 ± 54 | 72.8 ± 25 | 28100 ± 12000
12.5 µM | 3.81 ± 1.2 | 2860 ± 200 | 163 ± 27 | 81.2 ± 22 | 36500 ± 14000

CC1(C)C(C=C(Cl)Cl)C1C(=O)OC(C#N)c1ccc(F)c(Oc2ccccc2)c1 (configuration not stated) [Cyfluthrin]
Conditions | arterial, [4] | body length at 72 hpf, [2] | heart rate at 72 hpf, [1] | intersegmental vessel area normalized, [5] | pericardial area at 72 hpf, [3]
0.05 µM | 14.9 ± 4.7 | 3010 ± 110 | 185 ± 14 | 80.1 ± 26 | 16100 ± 5200
0.098 µM | 14.7 ± 4.3 | 3040 ± 91 | 187 ± 13 | 71.9 ± 21 | 14000 ± 3700
0.195 µM | 16.3 ± 7.1 | 3030 ± 130 | 188 ± 15 | 80.3 ± 29 | 12900 ± 3400
0.39 µM | 12.4 ± 4.2 | 3070 ± 120 | 193 ± 17 | 83.3 ± 28 | 13300 ± 4200
0.78 µM | 9.66 ± 3.1 | 3020 ± 130 | 202 ± 17 | 71.9 ± 25 | 14900 ± 3200
1.56 µM | 13 ± 5.4 | 2900 ± 150 | 198 ± 18 | 78.4 ± 25 | 16800 ± 3500
3.125 µM | 14.7 ± 5.8 | 2790 ± 130 | 190 ± 14 | 92.3 ± 18 | 16900 ± 5300
6.25 µM | – | 2620 ± 90 | – | – | –

C[C@@]1(c2ccc(Oc3ccccc3)cc2)OC(=O)N(Nc2ccccc2)C1=O (racemic) [Famoxadone]
Conditions | arterial, [4] | body length at 72 hpf, [2] | heart rate at 72 hpf, [1] | intersegmental vessel area normalized, [5] | pericardial area at 72 hpf, [3]
0.05 µM | 15.7 ± 7 | 2980 ± 83 | 172 ± 15 | 72.5 ± 23 | 13400 ± 4100
0.098 µM | 14.7 ± 7.2 | 2990 ± 84 | 180 ± 26 | 84.9 ± 20 | 13700 ± 3400
0.195 µM | 14.5 ± 4.1 | 2970 ± 93 | 188 ± 27 | 77.8 ± 18 | 13500 ± 3100
0.39 µM | 12.7 ± 3.2 | 2970 ± 100 | 177 ± 20 | 75.4 ± 23 | 12100 ± 3800
0.78 µM | 14.9 ± 5.7 | 2940 ± 66 | 160 ± 36 | 80 ± 22 | 15500 ± 5200

CCOc1cc(Oc2ccc(C(F)(F)F)cc2Cl)ccc1[N+](=O)[O-] [Oxyfluorfen]
Conditions | arterial, [4] | body length at 72 hpf, [2] | heart rate at 72 hpf, [1] | intersegmental vessel area normalized, [5] | pericardial area at 72 hpf, [3]
0.0244 µM | 12.2 ± 3.4 | 3050 ± 87 | 183 ± 20 | 86.8 ± 20 | 14300 ± 3900
0.05 µM | 15 ± 5.9 | 3020 ± 120 | 178 ± 19 | 86.7 ± 19 | 14500 ± 3800
0.098 µM | 13.5 ± 4.5 | 2990 ± 110 | 180 ± 19 | 88.8 ± 21 | 14900 ± 3100
0.195 µM | 15.8 ± 5.5 | 2990 ± 110 | 187 ± 16 | 79 ± 22 | 14500 ± 4300
0.39 µM | 14.3 ± 6.2 | 2990 ± 93 | 185 ± 18 | 95.7 ± 16 | 15500 ± 4400
0.78 µM | 13.4 ± 5.1 | 3000 ± 120 | 192 ± 19 | 90.7 ± 20 | 13400 ± 4100
1.56 µM | 14.4 ± 4.6 | 2850 ± 120 | 190 ± 13 | 89.4 ± 21 | 13400 ± 2700
3.125 µM | 12 ± 6.7 | 2980 ± 160 | 193 ± 18 | 87.2 ± 22 | 16200 ± 4000
6.25 µM | 10.5 ± 4.5 | 2960 ± 150 | 194 ± 13 | 100 ± 18 | 15900 ± 5100
12.5 µM | 7.87 ± 4.7 | 2840 ± 130 | 192 ± 19 | 90.5 ± 22 | 15300 ± 5000
25 µM | – | 2660 ± 150 | – | – | –
